# Test system: mdx mice
# Assay: Unscheduled death, sacrifice or lymphoma in chronically treated mdx mice
# Format: in vivo, mouse
# From the text: [Grouping & ASO Treatment] Male mdx mice (7 weeks old) were randomly assigned to 4 groups of 0 (mdx negative control), 10, 50, and 200 pmole/Kg “DMD-ASO 1” based on individual grip strength scores by grip test. (N=12 per group) A satellite group of 12 male C57BL/6 mice (7 weeks old) was included in this study as the wild type negative control group for the full-length dystrophin expression level.
# The 50 and 200 pmole/Kg group subcutaneously received “DMD-ASO 1” as dissolved in PBS, 2× per week until the final sacrifice in Week 43. In the meantime, the 10 pmole/Kg group subcutaneously received “DMD-ASO 1” initially 2× per week during Week 0 to 8, and 3× per week afterwards to increase the ASO exposure.
# [Miscellaneous Findings] There were three cases of unscheduled sacrifice or death (Weeks 26, 39 and 43) in the mdx negative control group due to a large mass of muscular lymphoma developed most likely by chronic muscular inflammation.
# “DMD-ASO 1”, “DMD-ASO 2” and “DMD-ASO 6” were evaluated for their physiological effects in male mdx mice by long term subcutaneous administration. In this evaluation the animals were not subjected to physical tests requiring muscular stress in order to keep the transcription of the dystrophin gene undisturbed by excessive muscular stimulation.
# [Animals & Grouping] Male mdx mice (6 weeks old) were randomly assigned to 4 groups of the mdx negative control (no ASO treatment), “DMD-ASO 1” 50 pmole/Kg, “DMD-ASO 2” […], and “DMD-ASO 6” […] based on the body weight. (N=12-13 per group) 12 male C57BL/6 mice (6 weeks old) were adopted as the wild type (WT) negative control group.
# [Injection Solutions & ASO Treatment] Aqueous mother stock solutions of the ASOs were serially diluted in PBS to prepare the injection solutions of 25 nM “DMD-ASO 1” for 50 pmole/Kg “DMD-ASO 1”, 5 nM “DMD-ASO 2” for “DMD-ASO 2” 10 pmole/Kg, and 5 nM “DMD-ASO 6” for “DMD-ASO 6” 10 pmole/Kg. The animals were subcutaneously administered with the injection solutions at 2 mL/Kg, 2× per week.
substance,measurement,setting,value
"Fethoc-A(5)GA-G(6)CC(1O2)-TCA-A(5)AA(5)-T-NH2 (antisense AGAGCCTCAAAAT; Fethoc N-cap, C-terminal amide, chemistry not fully specified) [DMD-ASO 1]",premature deaths (unscheduled death or sacrifice),"DMD-ASO 1 50 pmole/Kg, DMD-ASO 2 or DMD-ASO 6 10 pmole/Kg, subcutaneous 2× per week, 66 weeks",two premature deaths
same,cases of muscular lymphoma,"chronic 10, 50 or 200 pmole/Kg up to Week 43",no cases of lymphoma

# Reference: patent US12624068B2, “Exon skipping by peptide nucleic acid derivatives” (OliPass Corporation, priority 2016, dated 2026)
